From PubChem BioAssay AID179 (DTP/NCI, 2004)
Calls of active or inactive are those of the source.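 Rule for the calls: active = compounds giving half or more protection of infected cells from virus-caused growth loss, again on retest; inactive = the rest.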 Where a SMILES comes first, the peptide text is derived from it.

Test system: CEM cells HIV-1 protection, formazan growth assay
Assay: NCI AIDS Antiviral Assay
Conditions: for IC50: measured here: growth of uninfected CEM cells
Outline: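 Steps: treat uninfected and HIV-1-infected human CEM cells at five drug levels; quantify growth by soluble formazan; retest any compound reaching 50% protection; classify actives from the retest.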

Row | Compound | EC50 [µM] | IC50 [µM] | outcome
1 | COC(=O)[C@H]1ON2O[C@@H](O[C@H]3CCCC[C@@H]3C(C)(C)c3ccccc3)C[C@@H]3CC[C@H]1[C@@]32C | > 200 | > 200 | 
2 | O=C(NNC(=S)NC1CC(c2ccccc2)Oc2ccccc21)c1ccccc1 (stereo not given) |  |  | inactive
3 | C[CH2][Ge]([CH2]C)([CH2]C)[O]C(=O)CCC(=O)[O][Ge]([CH2]C)([CH2]C)[CH2]C | > 214 | > 214 | 
4 | Nc1nc(N)c(Br)c(Nc2ccc(Cl)c(Cl)c2)n1 | 52.5 | 155 | 
5 | CC(=O)O[C@H]1CCC2[C@@H]3CCC4=C(O)C(=O)C(C#N)C[C@]4(C)C3CC[C@@]21C (stereo not given in full) |  |  | inactive
6 | COC(C(=O)C(O)C(C)O)C1Cc2cc3cc(OC4CC(OC5CC(O)C(O)C(C)O5)C(O)C(C)O4)c(C)c(O)c3c(O)c2C(=O)C1OC1CC(OC2CC(O)C(OC3CC(C)(O)C(O)C(C)O3)C(C)O2)C(O)C(C)O1 (stereo not given) |  |  | inactive
7 | O=C1CCCCC/C1=C\c1cccc(Cl)c1 | > 200 | 28.8 | 
8 | NCC(=O)NC1(C(=O)O)CCCC1 (HELM PEPTIDE1{G.[O=C(O)C1(N[*:1])CCCC1]}$$$$V2.0) | > 200 | > 200 | 
9 | CC(C)(CO)C(O)C(=O)NCCS(=O)(=O)O (stereo not given) | > 200 | > 200 | 
10 | Clc1cc(Cl)c(OCC#CI)cc1Cl | > 200 | 6.92 | 
11 | COc1ccc(/C=C/C(=O)Oc2ccccc2OC)cc1 | > 200 | 0.398 | 
12 | OC(CN1CCC(c2ccccc2)CC1)c1ccc(Br)cc1 (stereo not given) | > 18.2 | > 18.2 | 
13 | CC(=O)Nc1ccccc1/C=C/c1ccccn1 | > 1050 | 407 | 
14 | O=C(CC1(O)C(=O)Nc2ccccc21)c1ccncc1 (stereo not given) |  |  | inactive
15 | COc1ccccc1NC(=O)C(CC(C(=O)Nc1ccccc1OC)/C(C)=N/Nc1ccc([N+](=O)[O-])cc1[N+](=O)[O-])/C(C)=N/Nc1ccc([N+](=O)[O-])cc1[N+](=O)[O-] (stereo not given) | > 9.12 | > 9.12 | 
16 | CC[N+](C)(CC)CCSC1=Nc2ccccc2N=C(c2ccc(Sc3ccccc3)cc2)C1 | > 200 | 6.76 | 
17 | COC(=O)C(NC(=O)C(C)NC(=O)OC(C)(C)C)C(C)O (stereo not given) |  |  | inactive
18 | O=C1NC(=O)C2(CCCCCC2)N1 | > 200 | > 200 | 
19 | O=S(=O)(O)c1cc(N=Nc2cc(S(=O)(=O)O)c3cccnc3c2O)ccc1/C=C/c1ccc(N=Nc2cc(S(=O)(=O)O)c3cccnc3c2O)cc1S(=O)(=O)O.[Na+].[Zn+2] | 1.95 | 14.1 | 
20 | O=C1C(=O)C(Br)(Br)C(Br)=C1Br |  |  | inactive
21 | CC(C)(C)c1cc(-c2c3nc(c(-c4cc(C(C)(C)C)cc(C(C)(C)C)c4)c4ccc([nH]4)c(-c4cc(C(C)(C)C)cc(C(C)(C)C)c4)c4nc(c(-c5cc(C(C)(C)C)cc(C(C)(C)C)c5)c5ccc2[nH]5)C=C4)C=C3)cc(C(C)(C)C)c1 | > 33.9 | > 33.9 | 
22 | CCOC(=O)c1ccc(CS(=O)(=O)c2ccccc2C(=O)OCC)cc1 | > 95.5 | > 95.5 | 

Row | Compound | EC50 [µM] | IC50 [µM] | outcome
23 | Cn1c(=O)cc(/C=C/c2ccnc3ccccc23)c2ccccc21 | > 200 | > 200 | 
24 | COC(=O)c1c(-c2ccccc2)c(-c2ccccc2)[nH]c(=O)c1C#N | > 200 | > 200 | 
25 | COc1cc(C(c2c(O)c3ccccc3oc2=O)c2c(O)c3ccccc3oc2=O)cc(OC)c1O | > 200 | 15.5 | 
26 | Cc1c(C(=O)CC(=O)C(=O)Nc2c(C(C)C)cccc2C(C)C)[n+](=O)c2ccccc2n1[O-] | > 6.03 | > 6.03 | 
27 | O=C(/C=C/c1ccc(O)c(O)c1)OC1CC(O)(C(=O)O)CC(O)C1O (stereo not given) (tested in a mixture with another compound) | > 200 | 81.3 | 
28 | O=C1CN(CCN2CCOCC2)CC(=O)N2CCCCN12 | > 200 | > 200 | 
29 | Cc1ccc(Cc2nc(=S)[nH][nH]2)cc1 | > 200 | 120 | 
30 | OCCNCNc1nc(NCNCCO)nc(N(CNCCO)CNCCO)n1 | > 200 | 26.9 | 
31 | CCN(CCCN(CC)C(=O)Nc1ccccc1)C(=O)Nc1ccccc1 | > 200 | 155 | 
32 | Cc1ccc(C(=O)O/N=C2/CCCCC2CN(C)C)cc1 (stereo not given) |  |  | inactive
33 | O=C(O)c1ccc(Nc2cnc3ccc(C(F)(F)F)cc3n2)cc1 | > 200 | 11.2 | 
34 | CC(C)[C@H]1CO[C@@H]2CCC(=O)N12 | > 1050 | > 1050 | 
35 | CC(C)OC1=C(CC2(C)OCCO2)C(=O)C12OCCO2 | > 200 | > 200 | 
36 | Cc1cccc2c1CC(C1OC(=O)c3ccccc31)C2=O (stereo not given) | > 100 | > 100 | 
37 | O=c1[nH]cnc2c1ncn2CCCCO |  |  | inactive
38 | COC1=CC2OC3OC(=O)CC3C2C(OCc2ccccc2)=C1 (stereo not given) | > 31.6 | > 31.6 | 
39 | O=c1[nH]c2ccccc2c(O)c1-c1ccccc1 | > 200 | > 200 | 
40 | C/C(=N\NS(=O)(=O)c1ccc(C)cc1)c1cc2ccccc2n1C | > 79.4 | > 79.4 | 
41 | Cc1ccc(/C=N/Nc2cc(C)c3ccccc3n2)s1 | > 200 | 10.7 | 
42 | Cc1ccc(S(=O)(=O)OC(c2ccc(Cl)cc2Cl)C2OC(=O)c3ccccc32)cc1 (stereo not given) | > 40.7 | > 40.7 | 
43 | NCCNC(=O)CN(CC(=O)O)C1CCCCC1N(CC(=O)O)CC(=O)O (stereo not given) | > 200 | > 200 | 
44 | CC1=NC(=Cc2ccccc2O)C(=O)N1n1c(-c2ccccc2)nc2ccccc2c1=O | > 200 | 12.6 | 
